These results are taken from patent publication US6943174B2, “6,5-Fused bicyclic heterocycles” (Warner-Lambert Company, priority 2000, dated 2005).

The target in one data set is T1, human 15-LO (Homo sapiens, UniProt P16050).
T1 construct: made in house; host or cells: Sf9 insect cells (baculovirus, Bac-to-Bac)
T1 sequence (P16050 1-662): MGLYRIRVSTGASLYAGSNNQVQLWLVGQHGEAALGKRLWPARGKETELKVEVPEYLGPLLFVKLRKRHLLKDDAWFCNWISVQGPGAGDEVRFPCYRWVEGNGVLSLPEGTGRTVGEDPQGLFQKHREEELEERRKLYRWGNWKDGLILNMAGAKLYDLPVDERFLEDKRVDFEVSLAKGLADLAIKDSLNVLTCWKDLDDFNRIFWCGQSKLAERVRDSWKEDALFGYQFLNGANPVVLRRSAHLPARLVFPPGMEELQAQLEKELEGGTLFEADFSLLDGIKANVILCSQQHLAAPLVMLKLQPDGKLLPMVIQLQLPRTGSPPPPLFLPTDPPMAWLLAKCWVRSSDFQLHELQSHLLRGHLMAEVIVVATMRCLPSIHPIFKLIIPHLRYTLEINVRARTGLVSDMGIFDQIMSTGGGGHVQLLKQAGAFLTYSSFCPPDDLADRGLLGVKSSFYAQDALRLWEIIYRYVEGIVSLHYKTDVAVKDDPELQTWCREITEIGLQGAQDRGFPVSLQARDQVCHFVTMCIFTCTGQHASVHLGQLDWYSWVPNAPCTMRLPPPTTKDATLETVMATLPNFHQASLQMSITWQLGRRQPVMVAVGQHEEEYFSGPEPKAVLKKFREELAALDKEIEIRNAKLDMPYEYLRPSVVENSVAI
The data set can be described thus: Human Lysate 15-LO Assay (HUM15LO). It is filed as biochemical. Particulars: 15-LO catalyzed oxidation of linoleic acid, 15 minutes at 4° C. The protocol: The HUM15LO assay measures inhibition of 15-LO catalyzed oxidation of linoleic acid to the hydroperoxy fatty acid 13-(S)HPODE, a conjugated diene. In the HUM15LO assay, a test compound was incubated with 15-LO enzyme in the presence of the linoleic acid substrate. For example, a known amount of a compound of the present invention and 100 μL of human 15-LO and 174 μM of linoleic acid in PBS containing 0.2% sodium cholate were incubated for 15 minutes at 4° C. The test reaction was stopped with 100 μL of mobile phase and 10 μL of triethyl phosphite. […] 13-HPODE was quantitated by comparing peak areas of individual samples with those from a standard curve generated using authentic 13-HODE. The test reaction was compared to a control reaction, which is identical to the test reaction except a test compound is not present. Percent inhibition was calculated as […], expressed as a percent.
Human 15-LO was generated in a recombinant 15-lipoxygenase bacculovirus expression system, using Gibco/BRL/Life Technologies' Bac-to-Bac expression reagents; T4 DNA ligase, Kanamycin, Gentamicin, tetracycline, penicillin, streptomycin, Bluo-gal, IPTC; DH10Bac competent cells, SOC, LB medium, Sf-900 II SFM media, Sf9 insect cells, Cell Fectin, and EcoRI, BamHI, and KpnI restriction enzymes.

Broadly, the melting point is the temperature, or range, at which the solid turns liquid. For orientation: IC50 means the midpoint of a concentration-inhibition curve. A higher IC50 goes with a need for much substance. In turn, `COc1ccc(-c2nc3cccnc3[nH]2)cc1NS(=O)(=O)c1cccs1` [Chemical Example 2, Thiophene-2-sulfonic acid [5-(3H-imidazo[4,5-b]pyridin-2-yl)-2-methoxy-phenyl]-amide] came in with a melting point of 252 to 254 °C. The same compound had an IC50 against human 15-LO of 10 µM.
In general, inhibition refers to the share of the control response that was lost under treatment. Take `COc1ccc(-c2nc3cccnc3[nH]2)cc1N` [Chemical Example 1, 5-(3H-imidazo[4,5-b]pyridin-2-yl)-2-methoxy-phenylamine]: the inhibition on human 15-LO (at 10 μM) is 39%.
